Key:
Format in all cases: biochemical
PI3K beta = biological target: T1, PI3K beta (Homo sapiens, UniProt P42338); test: Luciferase-based luminescence assay (ADP Glo), PI3K beta enzymatic activity; settings: for IC50: inhibition of enzymatic activity, ADP Glo, 25 μM ATP, read-out: IC50 p110β; for α/β ratio: ratio of enzymatic IC50 values, Table 1
T1 construct: purchased Millipore, Billerica, MA, USA
Summary of the method: (§1)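 Final enzyme 4.8 nM PI3K beta or 7.6 nM PI3K gamma, with 50 μM PIP2 and 25 μM ATP, 1 h in HEPES pH 7.5 buffer with MgCl2, EGTA, NaCl, CHAPS and DTT. ADP formed measured by ADP-Glo luminescence; IC50 from 10-point curve fits.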

PI3K gamma = biological target: T2, PI3K gamma (Homo sapiens, UniProt P48736); test: Luciferase-based luminescence assay (ADP Glo), PI3K gamma enzymatic activity; settings: inhibition of enzymatic activity, 25 μM ATP, read-out: IC50 p110γ
T2 construct: purchased Invitrogen Corp., Carlsbad, CA, USA
T2 sequence (P48736 whole entry, species assumed): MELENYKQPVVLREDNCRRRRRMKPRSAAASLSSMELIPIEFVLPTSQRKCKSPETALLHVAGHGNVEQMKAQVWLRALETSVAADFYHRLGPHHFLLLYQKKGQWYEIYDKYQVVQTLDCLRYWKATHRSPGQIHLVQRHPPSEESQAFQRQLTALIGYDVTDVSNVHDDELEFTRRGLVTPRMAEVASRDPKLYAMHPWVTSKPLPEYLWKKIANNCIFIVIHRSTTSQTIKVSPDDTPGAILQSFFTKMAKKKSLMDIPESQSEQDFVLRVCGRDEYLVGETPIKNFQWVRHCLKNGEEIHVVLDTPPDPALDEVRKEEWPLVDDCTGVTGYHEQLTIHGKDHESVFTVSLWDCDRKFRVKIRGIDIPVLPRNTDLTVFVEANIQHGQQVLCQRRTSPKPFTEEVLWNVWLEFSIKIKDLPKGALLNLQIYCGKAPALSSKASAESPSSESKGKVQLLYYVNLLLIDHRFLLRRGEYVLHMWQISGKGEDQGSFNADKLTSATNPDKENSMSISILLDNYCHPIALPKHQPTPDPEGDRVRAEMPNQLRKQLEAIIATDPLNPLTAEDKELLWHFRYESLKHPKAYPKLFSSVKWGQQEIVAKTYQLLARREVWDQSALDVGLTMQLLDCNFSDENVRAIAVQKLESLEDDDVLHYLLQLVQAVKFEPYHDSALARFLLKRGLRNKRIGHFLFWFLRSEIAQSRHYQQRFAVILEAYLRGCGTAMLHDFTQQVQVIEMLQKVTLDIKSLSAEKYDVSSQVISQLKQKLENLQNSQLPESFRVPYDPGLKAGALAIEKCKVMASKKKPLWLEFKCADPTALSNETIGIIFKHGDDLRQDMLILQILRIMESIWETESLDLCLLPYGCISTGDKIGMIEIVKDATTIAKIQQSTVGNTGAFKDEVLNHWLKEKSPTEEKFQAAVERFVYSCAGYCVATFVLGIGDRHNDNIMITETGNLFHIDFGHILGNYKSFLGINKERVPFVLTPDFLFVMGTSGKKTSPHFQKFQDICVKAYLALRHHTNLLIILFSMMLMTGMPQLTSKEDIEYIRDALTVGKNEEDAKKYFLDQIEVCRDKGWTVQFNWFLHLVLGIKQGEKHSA
Summary of the method: as §1

PI3K delta = biological target: T3, PI3K delta (Homo sapiens, UniProt O00329); test: Luciferase-based luminescence assay (KinaseGlo), PI3K delta enzymatic activity; settings: for IC50: inhibition of enzymatic activity, KinaseGlo, 25 μM ATP, read-out: IC50 p110δ; for α/δ ratio: ratio of enzymatic IC50 against PI3Kα over IC50 against PI3Kδ; for β/δ ratio / γ/δ ratio: ratio of enzymatic IC50 values, Table 1
T3 construct: purchased Millipore, Billerica, MA, USA
T3 sequence (O00329 whole entry, species assumed): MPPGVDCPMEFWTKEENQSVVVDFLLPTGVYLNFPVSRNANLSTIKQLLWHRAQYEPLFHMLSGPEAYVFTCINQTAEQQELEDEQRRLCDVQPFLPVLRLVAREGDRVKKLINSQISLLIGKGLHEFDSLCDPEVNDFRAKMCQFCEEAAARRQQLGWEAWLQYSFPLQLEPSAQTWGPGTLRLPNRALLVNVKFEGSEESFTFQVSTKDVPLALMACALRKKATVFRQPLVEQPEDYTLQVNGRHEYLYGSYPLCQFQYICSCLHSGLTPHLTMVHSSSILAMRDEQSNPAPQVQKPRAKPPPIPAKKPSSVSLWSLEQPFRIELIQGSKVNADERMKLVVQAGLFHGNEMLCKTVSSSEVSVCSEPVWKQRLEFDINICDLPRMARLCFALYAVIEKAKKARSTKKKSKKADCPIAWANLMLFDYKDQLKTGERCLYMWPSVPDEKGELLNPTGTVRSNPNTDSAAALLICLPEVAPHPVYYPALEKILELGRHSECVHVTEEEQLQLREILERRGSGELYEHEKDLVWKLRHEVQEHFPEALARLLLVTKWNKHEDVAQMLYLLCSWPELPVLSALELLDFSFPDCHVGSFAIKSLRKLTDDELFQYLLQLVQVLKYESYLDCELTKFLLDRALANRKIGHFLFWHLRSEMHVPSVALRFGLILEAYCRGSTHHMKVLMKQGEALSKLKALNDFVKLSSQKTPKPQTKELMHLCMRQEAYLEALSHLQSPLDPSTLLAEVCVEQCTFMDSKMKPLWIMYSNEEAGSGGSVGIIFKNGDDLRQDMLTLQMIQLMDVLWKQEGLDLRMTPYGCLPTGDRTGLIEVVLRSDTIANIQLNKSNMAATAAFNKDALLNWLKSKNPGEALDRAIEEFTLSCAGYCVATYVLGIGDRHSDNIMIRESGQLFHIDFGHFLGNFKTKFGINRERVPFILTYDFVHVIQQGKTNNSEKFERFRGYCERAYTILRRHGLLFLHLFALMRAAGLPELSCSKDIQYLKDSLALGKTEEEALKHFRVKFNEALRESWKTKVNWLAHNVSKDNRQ
T3 sequence (P27986 whole entry partner, species assumed): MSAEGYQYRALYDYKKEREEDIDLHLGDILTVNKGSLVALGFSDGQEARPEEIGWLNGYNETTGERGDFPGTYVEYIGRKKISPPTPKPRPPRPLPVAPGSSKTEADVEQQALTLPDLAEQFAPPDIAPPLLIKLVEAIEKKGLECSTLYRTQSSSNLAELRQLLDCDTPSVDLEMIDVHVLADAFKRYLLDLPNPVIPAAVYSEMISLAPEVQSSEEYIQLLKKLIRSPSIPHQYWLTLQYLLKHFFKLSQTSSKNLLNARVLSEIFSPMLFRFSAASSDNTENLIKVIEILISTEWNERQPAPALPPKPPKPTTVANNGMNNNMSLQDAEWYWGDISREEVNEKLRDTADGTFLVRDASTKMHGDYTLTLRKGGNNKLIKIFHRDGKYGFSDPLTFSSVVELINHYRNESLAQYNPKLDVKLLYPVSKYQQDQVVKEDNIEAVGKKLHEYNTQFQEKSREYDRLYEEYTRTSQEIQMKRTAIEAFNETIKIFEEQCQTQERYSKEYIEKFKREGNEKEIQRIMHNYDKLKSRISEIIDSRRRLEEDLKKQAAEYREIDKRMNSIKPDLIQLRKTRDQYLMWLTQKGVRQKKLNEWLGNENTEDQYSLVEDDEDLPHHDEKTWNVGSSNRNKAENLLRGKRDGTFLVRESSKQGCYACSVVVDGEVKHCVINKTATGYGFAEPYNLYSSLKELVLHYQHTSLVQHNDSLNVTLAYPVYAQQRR
Summary of the method: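 KinaseGlo luminescence measured ATP remaining after PIP2 (50 μM) phosphorylation with 25 μM ATP in HEPES pH 7.5 buffer with CHAPS and DTT. Final enzyme was 1.65 nM alpha (1 h reaction) or 6.86 nM delta (2 h reaction). IC50 was curve-fitted from 10 concentrations.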

T1 sequence (P42338 whole entry, species assumed): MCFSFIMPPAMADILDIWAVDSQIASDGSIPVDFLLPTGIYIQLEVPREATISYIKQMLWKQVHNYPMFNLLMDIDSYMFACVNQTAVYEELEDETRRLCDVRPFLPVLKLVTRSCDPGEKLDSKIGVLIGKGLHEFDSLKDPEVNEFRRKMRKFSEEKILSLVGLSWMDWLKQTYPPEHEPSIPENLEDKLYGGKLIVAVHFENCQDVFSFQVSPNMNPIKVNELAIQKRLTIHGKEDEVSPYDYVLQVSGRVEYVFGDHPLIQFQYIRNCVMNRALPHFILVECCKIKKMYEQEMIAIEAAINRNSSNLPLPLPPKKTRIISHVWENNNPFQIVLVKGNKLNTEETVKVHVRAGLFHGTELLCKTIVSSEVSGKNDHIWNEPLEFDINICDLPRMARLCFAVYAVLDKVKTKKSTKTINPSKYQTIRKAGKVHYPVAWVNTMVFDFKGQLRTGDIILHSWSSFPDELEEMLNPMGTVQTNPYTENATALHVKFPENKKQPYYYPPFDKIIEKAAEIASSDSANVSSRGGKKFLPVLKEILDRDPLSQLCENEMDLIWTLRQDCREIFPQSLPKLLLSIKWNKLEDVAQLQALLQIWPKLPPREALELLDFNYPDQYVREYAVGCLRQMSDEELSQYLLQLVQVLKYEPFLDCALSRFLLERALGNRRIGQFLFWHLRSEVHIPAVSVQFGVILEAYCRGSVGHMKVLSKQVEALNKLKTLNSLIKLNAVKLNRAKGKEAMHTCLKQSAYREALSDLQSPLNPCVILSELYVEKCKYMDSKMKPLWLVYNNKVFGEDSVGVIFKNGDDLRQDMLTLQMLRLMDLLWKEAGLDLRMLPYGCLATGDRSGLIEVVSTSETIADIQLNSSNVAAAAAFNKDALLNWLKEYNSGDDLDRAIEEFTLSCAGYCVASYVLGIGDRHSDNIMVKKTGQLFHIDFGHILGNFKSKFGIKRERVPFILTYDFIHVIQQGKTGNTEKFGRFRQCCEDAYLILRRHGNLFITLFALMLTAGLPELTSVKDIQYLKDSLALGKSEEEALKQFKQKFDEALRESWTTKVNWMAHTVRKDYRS
T1 sequence (P27986 whole entry partner, species assumed): as the sequence (P27986 whole entry partner, species assumed) above

| SMILES | IC50 (PI3K beta) | α/β ratio (PI3K beta) | IC50 (PI3K gamma) | IC50 (PI3K delta) | α/δ ratio (PI3K delta) | β/δ ratio (PI3K delta) | γ/δ ratio (PI3K delta) |
| --- | --- | --- | --- | --- | --- | --- | --- |
| Cn1cc(-c2ccccc2CC(C)(C)Nc2nc(N3CCOCC3)nc(-n3c(C(F)F)nc4ccccc43)n2)cn1 [Compound A45, 4-(2-(difluoromethyl)-1H-benzo[d]imidazol-1-yl)-N-(2-methyl-1-(2-(1-methyl-1H-pyrazol-4-yl)phenyl)propan-2-yl)-6-morpholino-1,3,5-triazin-2-amine] | ≤ 100 nM | A’ | 200 to 500 nM | ≤ 100 nM | A’ | D’ | A’ |
| Cn1nccc1-c1ccccc1CC(C)(C)Nc1nc(N2CCOCC2)nc(-n2c(C(F)F)nc3ccccc32)n1 [Compound A46, 4-(2-(difluoromethyl)-1H-benzo[d]imidazol-1-yl)-N-(2-methyl-1-(2-(1-methyl-1H-pyrazol-5-yl)phenyl)propan-2-yl)-6-morpholino-1,3,5-triazin-2-amine] | ≤ 100 nM | A’ | > 500 nM | ≤ 100 nM | A’ | D’ | A’ |
| Cc1cccc(CC(C)(C)Nc2nc(N3CCOCC3)nc(-n3c(C(F)F)nc4ccccc43)n2)c1 [Compound A49, 4-(2-(difluoromethyl)-1H-benzo[d]imidazol-1-yl)-N-(2-methyl-1-m-tolylpropan-2-yl)-6-morpholino-1,3,5-triazin-2-amine] | ≤ 100 nM | A’ | 200 to 500 nM | ≤ 100 nM | A’ | D’ | C’ |
| COc1cc(CC(C)(C)Nc2nc(N3CCOCC3)nc(-n3c(C(F)F)nc4ccccc43)n2)ccc1F [Compound A50, 4-(2-(difluoromethyl)-1H-benzo[d]imidazol-1-yl)-N-(1-(4-fluoro-3-methoxyphenyl)-2-methylpropan-2-yl)-6-morpholino-1,3,5-triazin-2-amine] | ≤ 100 nM | B’ | > 500 nM | ≤ 100 nM | A’ | C’ | A’ |
| CC(C)(Cc1ccc(F)cc1F)Nc1nc(N2CCOCC2)nc(-n2c(C(F)F)nc3ccccc32)n1 [Compound A51, 4-(2-(difluoromethyl)-1H-benzo[d]imidazol-1-yl)-N-(1-(2,4-difluorophenyl)-2-methylpropan-2-yl)-6-morpholino-1,3,5-triazin-2-amine] | > 500 nM | D’ | 200 to 500 nM | ≤ 100 nM | A’ | B’ | C’ |
| CC(C)(Cc1c(F)cccc1F)Nc1nc(N2CCOCC2)nc(-n2c(C(F)F)nc3ccccc32)n1 [Compound A52, 4-(2-(difluoromethyl)-1H-benzo[d]imidazol-1-yl)-N-(1-(2,6-difluorophenyl)-2-methylpropan-2-yl)-6-morpholino-1,3,5-triazin-2-amine] | > 500 nM | D’ | ≤ 100 nM | ≤ 100 nM | C’ | B’ | D’ |
| CC(C)(Cc1ccccc1-c1ccccc1F)Nc1nc(N2CCOCC2)nc(-n2c(C(F)F)nc3ccccc32)n1 [Compound A59, 4-(2-(difluoromethyl)-1H-benzo[d]imidazol-1-yl)-N-(1-(2′-fluorobiphenyl-2-yl)-2-methylpropan-2-yl)-6-morpholino-1,3,5-triazin-2-amine] | 200 to 500 nM | C’ | > 500 nM | ≤ 100 nM | A’ | A’ | A’ |
| Cc1ccccc1-c1ccccc1CC(C)(C)Nc1nc(N2CCOCC2)nc(-n2c(C(F)F)nc3ccccc32)n1 [Compound A60, 4-(2-(difluoromethyl)-1H-benzo[d]imidazol-1-yl)-N-(2-methyl-1-(2′-methylbiphenyl-2-yl)propan-2-yl)-6-morpholino-1,3,5-triazin-2-amine] | ≤ 100 nM | A’ | > 500 nM | ≤ 100 nM | A’ | D’ | A’ |
| CC(C)(Cc1ccccc1-c1ccccc1Cl)Nc1nc(N2CCOCC2)nc(-n2c(C(F)F)nc3ccccc32)n1 [Compound A61, 4-(2-(difluoromethyl)-1H-benzo[d]imidazol-1-yl)-N-(1-(6′-chlorobiphenyl-2-yl)-2-methylpropan-2-yl)-6-morpholino-1,3,5-triazin-2-amine] | ≤ 100 nM | A’ | > 500 nM | ≤ 100 nM | A’ | D’ | A’ |
| CC(C)(Cc1ccccc1-c1cccnc1F)Nc1nc(N2CCOCC2)nc(-n2c(C(F)F)nc3ccccc32)n1 [Compound A62] | > 500 nM | D’ | > 500 nM | ≤ 100 nM | A’ | A’ | A’ |
| CC(C)(Cc1ccccc1-c1cncnc1)Nc1nc(N2CCOCC2)nc(-n2c(C(F)F)nc3ccccc32)n1 [Compound A63, 4-(2-(difluoromethyl)-1H-benzo[d]imidazol-1-yl)-N-(2-methyl-1-(2-(pyrimidin-5-yl)phenyl)propan-2-yl)-6-morpholino-1,3,5-triazin-2-amine] | ≤ 100 nM | D’ | 200 to 500 nM | ≤ 100 nM | A’ | A’ | A’ |
| CN1CCN(c2cc(-c3ccccc3CC(C)(C)Nc3nc(N4CCOCC4)nc(-n4c(C(F)F)nc5ccccc54)n3)ccn2)CC1 [Compound A64, 4-(2-(difluoromethyl)-1H-benzo[d]imidazol-1-yl)-N-(2-methyl-1-(2-(2-(4-methylpiperazin-1-yl)pyridin-4-yl)phenyl)propan-2-yl)-6-morpholino-1,3,5-triazin-2-amine] | ≤ 100 nM | A’ | > 500 nM | ≤ 100 nM | A’ | D’ | A’ |
| CC(C)(Cc1ccccc1-c1cccc(CN2CCOCC2)c1)Nc1nc(N2CCOCC2)nc(-n2c(C(F)F)nc3ccccc32)n1 [Compound A65, 4-(2-(difluoromethyl)-1H-benzo[d]imidazol-1-yl)-N-(2-methyl-1-(3′-(morpholinomethyl)biphenyl-2-yl)propan-2-yl)-6-morpholino-1,3,5-triazin-2-amine] | ≤ 100 nM | A’ | 100 to 200 nM | ≤ 100 nM | A’ | D’ | D’ |
| COc1cccc(-c2ccccc2CC(C)(C)Nc2nc(N3CCOCC3)nc(-n3c(C(F)F)nc4ccccc43)n2)c1 [Compound A66, 4-(2-(difluoromethyl)-1H-benzo[d]imidazol-1-yl)-N-(1-(3′-methoxybiphenyl-2-yl)-2-methylpropan-2-yl)-6-morpholino-1,3,5-triazin-2-amine] | > 500 nM | D’ | > 500 nM | ≤ 100 nM | A’ | A’ | A’ |
| COc1ccc(-c2ccccc2CC(C)(C)Nc2nc(N3CCOCC3)nc(-n3c(C(F)F)nc4ccccc43)n2)cc1 [Compound A67, 4-(2-(difluoromethyl)-1H-benzo[d]imidazol-1-yl)-N-(1-(4′-methoxybiphenyl-2-yl)-2-methylpropan-2-yl)-6-morpholino-1,3,5-triazin-2-amine] | 200 to 500 nM | D’ | > 500 nM | ≤ 100 nM | A’ | B’ | A’ |
| CC(C)(Cc1ccccc1C1CCNCC1)Nc1nc(N2CCOCC2)nc(-n2c(C(F)F)nc3ccccc32)n1 [Compound A68, 4-(2-(difluoromethyl)-1H-benzo[d]imidazol-1-yl)-N-(2-methyl-1-(2-(piperidin-4-yl)phenyl)propan-2-yl)-6-morpholino-1,3,5-triazin-2-amine] | > 500 nM | D’ | > 500 nM | ≤ 100 nM | A’ | A’ | A’ |
| CCN1CCC(c2ccccc2CC(C)(C)Nc2nc(N3CCOCC3)nc(-n3c(C(F)F)nc4ccccc43)n2)CC1 [Compound A70, 4-(2-(difluoromethyl)-1H-benzo[d]imidazol-1-yl)-N-(1-(2-(1-ethylpiperidin-4-yl)phenyl)-2-methylpropan-2-yl)-6-morpholino-1,3,5-triazin-2-amine] | > 500 nM | C’ | > 500 nM | ≤ 100 nM | A’ | A’ | A’ |
| CC(C)N1CCC(c2ccccc2CC(C)(C)Nc2nc(N3CCOCC3)nc(-n3c(C(F)F)nc4ccccc43)n2)CC1 [Compound A71, 4-(2-(difluoromethyl)-1H-benzo[d]imidazol-1-yl)-N-(1-(2-(1-isopropylpiperidin-4-yl)phenyl)-2-methylpropan-2-yl)-6-morpholino-1,3,5-triazin-2-amine] | > 500 nM | D’ | > 500 nM | ≤ 100 nM | A’ | A’ | A’ |

From patent US12059422B2 (MEI Pharma, Inc., priority 2011, dated 2024)
